Results on 60 molecules are retold here after a melting point compilation (Tetko et al.; mined from patent text by program, amines drawn as free bases though some values may be those of a salt).

As usually defined, the melting point is the temperature, or range, at which the solid turns liquid. For `CCCCc1nc2c(c(=O)[nH]1)CN(C(=O)OCc1ccccc1)CC2`, the melting point was 117 to 122 °C. Turning to `COc1ccc(C(CCCCC(=O)NO)C2=C(C)C(=O)c3ccccc3C2=O)cc1` (stereo not given), the melting point is 129 to 130 °C. Turning to `C=COc1ccccc1S(=O)(=O)NC(=O)c1ccc(Cc2cn(C)c3ccc(NC(=O)OC4CCCC4)cc23)c(OC)c1`, the melting point is 185 to 188 °C.

For `COc1ccc(C(=C/C=C/C(=O)Nc2cccc3cnccc23)c2ccc(OC)cc2)cc1`, the melting point was in the range of 197 to 199 °C. As for `COc1cc(NC(=O)Nc2cccc3c2C2CC(=O)CCN2C3=O)nc2ccccc12` (stereo not given), the figure is 223 to 225 °C; as for `COc1ccccc1COc1ccc(S(=O)(=O)c2ccc(C)nc2Nc2cc(OC)c(OC)cc2Cl)cc1`, 149 to 151 °C; as for `Cn1c(=O)c(-c2ccc(Cl)cc2Cl)cc2c3cc(-c4coc(N)n4)ccc3n(C)c21`, 295 to 297 °C. As for `CCCCCCCCCCCCCCC(CCC(=O)OCc1ccccc1)(C(=O)O)C(=O)O`, the figure is 47 to 49 °C; as for `CC(=O)SCC(Cc1ccccc1)C(=O)Nc1ccc(Cl)c(C(=O)O)c1` (stereo not given), 163 to 165 °C. As for `O=C(NCCO[N+](=O)[O-])c1csc(-c2cccc([N+](=O)[O-])c2)n1`, the figure is 149 to 152 °C; as for `Cc1[nH]c(=O)c(C#N)cc1-c1ccccc1`, 280 to 290 °C. As for `CCOC(=O)c1ccc(-c2ccc(OC)cc2)cc1`, the melting point lay within 103 to 104 °C. `COC(=O)c1cc(O)cc2cc(-c3ccc(O)cc3)oc12`: the melting point fell in the range of 236 to 238 °C. For `Cc1ccc(C(=O)C2=C(O)C(=O)N(c3ncc(S(=O)(=O)N4CCOCC4)s3)C2c2ccc(C(C)C)cc2)cc1` (stereo not given), the melting point was 247 to 252 °C.

On to `CC(C)c1ccnc(C(=O)c2[nH]c3ccc(Cl)cc3c2CC(=O)O)c1`, for which the melting point lay in the range of 227 to 228 °C. In the case of `c1csc(-c2noc(COc3ccc(CCCCn4ccnc4)cc3)n2)c1`, the melting point lay within 94 to 95 °C. The molecule `Cc1oc2c(C=Cc3c(Cl)cccc3Cl)cccc2c1C` had a melting point of 93 to 94 °C. As for `Oc1ccc(Cl)cc1C1(O)CCCCC1`, the figure is 110 °C; as for `CC(C)NC(=O)NCCc1c2c3c(nc(N)c2nn1C)CCCC3`, 237 to 238 °C; as for `CC(C)Sc1c(C(N)=O)sc2ccc(OCc3ccccc3)cc12`, 150 to 152 °C. Next, `COc1cc2ncnc(Nc3ccc(F)c(Cl)c3)c2cc1OCC1(C)COCOC1`: 212 to 213 °C; `Nc1c(F)c(N2CCC(C3(N)CCC3)C2)c(F)c2c1c(=O)c(C(=O)O)cn2[C@@H]1C[C@@H]1F` (stereo not given in full): 133 to 139 °C. Next, `CN(C)CC#Cc1cnc2c(c1)N(Cc1cc(Cl)ccc1Cl)CCN2`: 168 °C; `O=C(CC1CCCC1)c1ccc(Cn2ccc3ncnc-3c2)cc1`: 153 to 156 °C. The molecule `CSC1CC(=O)N1CC(=O)NCc1ccccc1` (stereo not given) had a melting point of 84 to 87 °C. In the case of `O=C1N(Cc2ncccc2C(F)(F)F)c2c(F)cccc2C12COc1cc3c(cc12)OCCO3` (stereo not given), the melting point lay within 241 to 243 °C.

Turning to `CC(C)(C)C(NC(=O)Cc1ccc(Cl)cc1)NC(=NC#N)Nc1cccc2cnsc12` (stereo not given), the melting point fell in the range of 135 to 137 °C. Next, `O=CNc1c(-c2ccccc2)sc2ccccc12`: 78 to 79 °C; `O=C(Nc1ccc(C(=O)N2Cc3ccccc3Cc3ccccc32)cc1)c1cc(Cl)ccc1Cl`: 203 to 231 °C. On to `COC(=O)[C@@H]1C[C@@H](OS(C)(=O)=O)CN1C(=O)C1(C(F)(F)F)CC1`, for which the melting point lay in the range of 123 to 124 °C. Next, `CCOC(=O)CC(=O)c1csc(-c2ccccc2)n1`: 66 to 68 °C; `CCOC(=O)CN(SN(C)C(=O)Oc1cccc2c1OC(C)(C)C2)c1ccccc1`: 92 to 93 °C; `CCCCCCCCCCCCCCCCCCOc1cccc(C(=O)OC)c1OCCCOc1ccc(OCc2ccccc2)cc1`: 43 to 45 °C. As for `Cc1nc2scc(-c3ccc(F)cc3)n2c(=O)c1CCN1CCC(c2noc3cc(F)ccc23)CC1`, the figure is 119 to 122 °C; as for `COc1cc2c(cc1OC)C1=NCCN1C(/C=C(\O)c1cccnc1)=N2`, 275 °C.

In turn, `CCNc1nc(NC(C)C)nc(OC)n1` yielded a melting point of 95 to 96 °C. As to `COc1ccc(Cn2nc(-c3cccc(Cl)c3)c3ncccc3c2=O)cn1`, the melting point amounted to 145 °C. `O=C(NCC1CC2CCC1C2)n1cc(F)c(=O)[nH]c1=O` (stereo not given) registered a melting point of 165 to 166 °C. For the molecule `CC(C)(C)c1noc(-c2ncn3c2[C@@H]2CCCN2C(=O)c2c(Cl)cccc2-3)n1`, the melting point lay within 222 to 224 °C. Next, `CC(=NN)c1ccc2c(c1)C(C(Cl)(Cl)Cl)OC(C(Cl)(Cl)Cl)O2` (stereo not given): 159 °C; `O=C(O)c1ccc(Cn2cnc3ccc(Cl)c(C(=O)O)c32)cc1`: 291 to 292 °C. Molecule `COc1nc2ccccc2cc1NC(=O)N1CCN(c2cccc(OCC3CC3)c2)CC1` yielded a melting point of 146 to 147 °C. As for `NS(=O)(=O)c1ccc(-c2c(-c3cccc(F)c3)noc2CC(=O)O)cc1`, the figure is 242 to 250 °C. As for `FC(F)(F)c1ccc(CN2CC3(COc4ccc(-c5ccncc5)cc43)c3ccccc32)o1` (stereo not given), the figure is 108 to 110 °C; as for `CCOC(=O)C(Cl)=Cc1ccc([N+](=O)[O-])cc1`, 108 to 110 °C. Next, `Cc1cccc2c1N(Cc1c[nH]cn1)C(=O)C(NC(=O)Nc1cccc(-c3nnn[nH]3)c1)N=C2C1CCCCC1` (stereo not given): 168 to 179 °C; `O=C(Nc1ccccn1)c1c(OC(F)F)ccc2oc3ccc(C(F)(F)F)cc3c12`: 169 to 170 °C. `CN(NC(=O)c1c(Cl)cccc1Cl)S(=O)(=O)c1ccccc1` displayed a melting point of 177 to 178 °C. The molecule `CCC12CCC(=O)C=C1c1c(cc(OCC#N)c(Cl)c1Cl)C2` (stereo not given) registered a melting point of 171 to 172 °C. Next, `Cc1cc(COc2nn(Cc3ccccc3)cc2C=O)ccc1OCc1nc(-c2ccco2)oc1C`: 121 to 122 °C; `COc1cc(OC)nc(NC(=O)NS(=O)(=O)c2cccc3c2S(=O)(=O)N(C)C3)n1`: 229 to 231 °C; `Cc1oc(-c2ccccc2)nc1COc1cc(COc2ncccc2CO)on1`: 136 to 137 °C. For `COc1ncncc1C1c2ccccc2OCOc2cc(F)ccc21` (stereo not given), the melting point fell in the range of 144 to 148 °C. With `COC(=O)c1snc(-c2cc(OC)c(Cl)cc2F)c1N`, the melting point fell in the range of 121 to 124 °C.

For the molecule `Cc1nc(NC(=O)c2ccccc2)sc1C(=O)NCC1CC1`, the melting point lay in the range of 163 to 166 °C. As for `CC(=O)c1cn(Cc2ccc(F)cc2)c2ccccc2c1=O`, the figure is 185 to 187 °C; as for `Clc1ccc2c(c1)CNc1ccccc1C2`, 132 to 135 °C. Next, `CCOC(=O)CC[C@@H](C(=O)OCC)N1C(=O)c2ccc([N+](=O)[O-])cc2C1=O`: 65.5 to 66.5 °C. Molecule `COC(=O)CCn1c(=O)n(CCN2CCN(c3cccc(Cl)c3)CC2)c(=O)c2cscc21` returned a melting point of 150 °C. For `OCc1ccn(-c2ccc(OC(F)(F)F)cc2)n1`, the melting point lay within 53 to 54 °C.
